For test [1], the system named is Staphylococcus aureus 502A. The experiment in a line: Radial diffusion antibacterial assay, S. aureus 502A. It counts as cell-based. The note with it: 5 μl of peptide, 10 to 300 μg/ml, FIG. 7. How it is done:
(§1) FIG. 7. Antibacterial activities of purified beta defensins. Nutrient agar plates seeded with E. coli ML35 (.oval-solid.) or S. aureus 502A (.smallcircle.) were used to assess antibacterial activity of 13 neutrophil beta-defensins in addition to rabbit defensin NP-1, bactenecin dodecapeptide, and indolicidin. Activity is expressed as the diameter of clearing (mm) resulting from the application of 5 μl of peptide at the concentrations shown.
(§2) Antimicrobial assay. Escherichia coli ML35 and Staphylococcus aureus 502A were utilized in a radial diffusion assay recently described by Lehrer et al. (J. Immunol. Meth. 167-173 (1991)). Bacteria were grown to mid-log phase in trypticase soy broth (TSB), diluted into 10 ml of warm (43° C.) 1% agarose containing 3 mg of TSB, buffered with 10 mM sodium phosphate, pH 7.4. Five μl of each peptide solution was pipetted into wells formed with a 4 mm cork bored and allowed to incubate at 37° C. for 3-4 hours. Plates were then overlaid with 10 ml of sterile 1% agar containing 2×TSB. Following incubation for 18 to 24 hours, the diameter of the clear zone surrounding each well was measured using a magnified transilluminator.
(§3) Antimicrobial activity of beta-defensins. The antibacterial activity of each beta-defensin was evaluated using Staphylococcus aureus 502A and Escherichia coil ML35 as test organisms. Using a sensitive radial diffusion assay, each peptide was tested against the two bacterial organisms with beta-defensin concentrations ranging from 10 to 300 μg/ml. The data presented in FIG. 7 reveal the dose-dependent activity of each peptide as measured by the size of the clear zone surrounding the sample well. In most cases, the log of the peptide concentration was linearly related to the diameter of the growth-free zone. […] In most cases, the zone of clearing was greater against E. coli than S. aureus.

Another test deals with Escherichia coli ML35. As to the kind of experiment: Radial diffusion antibacterial assay, E. coli ML35. It counts as cell-based. The note with it: 5 μl of peptide, 10 to 300 μg/ml, FIG. 7. As for the experimental part: as §1, §2, §3
For test [2], the system named is Cryptococcus neoformans 271A. The experiment in a line: Fungicidal assay (colony counting), Cryptococcus neoformans 271A. It counts as cell-based. As to conditions: 60 minutes, FIG. 16; for fungicidal effectiveness against C. neoformans at highest concentration: 50 μg/ml; for fungicidal potency against C. neoformans: 0 to 50 μg/ml. How it is done:
(§4) Candida albicans 16820 and Cryptococcus neoformans 271A were grown with shaking for 24 hours or days, respectively, at 37° C. in Sabouraud Dextrose Broth (SDB, DIFCO). To obtain midlogarithmic phase organisms, 1.0 ml of overnight culture was inoculated into 50 ml of SDB and incubated for 3 hours (C. albicans) or overnight (C. neoformans) with shaking. The cultures were centrifuged at 10,000 rpm for 10 minutes at 4° C., washed with cold 10 mM phosphate buffer, pH 7.4, and resuspended in cold buffer to a concentration of 1×10^7 cells/ml. The fungicidal assay mixture contained 30 1 of the phosphate buffer, 10 μl (1×10^5 cells) of the fungal stock suspension, and 10 μl of peptide giving final peptide concentrations of 0 to 50 μg/ml. Incubations were carried out at 37° C. for 60 minutes, after which a 30 μl aliquot was removed and diluted 10, 100, and 1000-fold. Duplicate 100 μl samples of each dilution were spread onto SDB plates and incubated for 18 hours at 37° C. Plates were incubated for 1 or 2 days at 37° C. Surviving organisms were quantitated by colony counting using a Darkfield Colony Counter (Quebec).

The subject of a further test is S. aureus. As to conditions: background, earlier report; cited from earlier work.
Another test deals with E. coli. The note with it: background, earlier report; cited from earlier work.
The test system of a further test is E. coli ML35. As to the kind of experiment: Bactericidal assay (colony counting), E. coli ML35. It is filed as cell-based, Escherichia coli. The note with it: below 50 μg/ml, 30 minutes, FIG. 14. As for the experimental part: A 1:500 dilution of overnight cultures of E. coli ML35 and S. aureus 502A was incubated with shaking for 2.5 to 3 hours at 37° C. in trypticase soy broth (TSB). The bacteria were centrifuged at 10,000 rpm for 10 minutes at 4 c, washed with cold 10 mM sodium phosphate buffer, pH 7.4 and resuspended in cold phosphate buffer to a concentration of 1×10^7 cells/ml. Solutions of various concentrations of BNBDs were made up in 10 mM sodium phosphate buffer, pH 7.4. The bactericidal assay mixture contained 30 μl of the phosphate buffer, 10 μl (1×10^5 cells) of the bacterial stock solution, and 10 μl of peptide giving final peptide concentrations of 0 to 50 μg/ml. Incubations were carried out at 37° C. for 30 minutes, after which a 30 μl aliquot was removed and diluted 10, 100, and 1000-fold. Duplicate 100 μl samples of each dilution were spread into TSB plates and incubated for 18 hours at 37° C. Colonies were counted with the Darkfield Colony Counter (Quebec).

The subject of a further test is Candida albicans 16820. It is filed as cell-based. As to conditions: 0 to 50 μg/ml, 60 minutes, FIG. 15. How it is done: as §4

Consider twelve compounds from patent US5821224A, “Antimicrobial peptides from bovine neutrophils” (Regents of the University of California, priority 1994, dated 1998).

Entries after “also recorded” stand apart in the source; their conditions may differ. Bridges are numbered along the chain shown (N, C = ends). Where no end group is shown, it is not given here. [ ]: non-standard residue; d: D form. pGlu = O=C1CC[C@@H](C(=O)O)N1

Take “BNBD-8: bovine neutrophil beta-defensin 8, 38 residues; identical to BNBD-9 without the pyroglutamyl-glycine extension (SEQ ID NO: 8)”: the “antibacterial activity (diameter of clearing) against S. aureus” value (“antibacterial activity … against S. aureus” for short) in test [1] is listed as “differ in antibacterial potency”. In addition, the “antibacterial activity (diameter of clearing) against E. coli” value (shortened to “antibacterial activity … against E. coli”) in the test with Escherichia coli ML35 is given as “differ in antibacterial potency”.

On to “BNBD-1: bovine neutrophil beta-defensin 1, 38 residues, purified from neutrophil granules; sequence in FIG. 5 (SEQ ID NO: 1) (DFASCHTNGGICLPNRCPGHMIQIGICFRPRVKCCRSW; not fully specified (bridges); ends and bridges not checked)”, for which the “antibacterial activity … against S. aureus” value in test [1] is “all but BNBD-1 and BNBD-5 were active”.

Take “[pGlu]RVRNPQSCRWNMGVCIPFLCRVGMRQIGTCFGPRVPCCRR (disulfide 9-38, 16-31, 21-39) [BNBD-4]”: in test [2], the “fungicidal effectiveness against C. neoformans at highest concentration” value is “equally effective”.

`CC[C@H](C)[C@H](N)C(=O)N[C@@H](CC(C)C)C(=O)N1CCC[C@H]1C(=O)N[C@@H](Cc1c[nH]c2ccccc12)C(=O)N[C@@H](CCCCN)C(=O)N[C@@H](Cc1c[nH]c2ccccc12)C(=O)N1CCC[C@H]1C(=O)N[C@@H](Cc1c[nH]c2ccccc12)C(=O)N[C@@H](Cc1c[nH]c2ccccc12)C(=O)N1CCC[C@H]1C(=O)N[C@@H](Cc1c[nH]c2ccccc12)C(=O)N[C@@H](CCCNC(=N)N)C(=O)N[C@@H](CCCNC(=N)N)C(N)=O` [indolicidin, reference compound]: in the test with S. aureus, the “bactericidal activity against S. aureus” value is reported as “potent bactericidal activity”. For the same compound, the “bactericidal activity against E. coli” value in the test with E. coli is reported as “potent bactericidal activity”. Moreover, the “antibacterial activity … against S. aureus” value in test [1] is “nearly as active as rabbit NP-1”. For the same compound, the “antibacterial activity … against E. coli” value with Escherichia coli ML35 is recorded as “the most active peptide against E. coli”.

Regarding “[pGlu]GVRNHVTCRINRGFCVPIRCPGRTRQIGTCFGPRIKCCRSW (disulfide 9-38, 16-31, 21-39) [BNBD-3]”, the “antibacterial activity … against S. aureus” value in test [1] is listed as “equivalent antibacterial activity”. Besides, the “antibacterial activity … against E. coli” value in the test on Escherichia coli ML35 is “equivalent antibacterial activity”. For the same compound, the “bactericidal potency against E. coli at lower concentrations” value with E. coli ML35 is “the greatest”. Further, in test [2], the “fungicidal potency against C. neoformans” value was “the most potent”.

As to “BNBD-5: bovine neutrophil beta-defensin 5, 40 residues (SEQ ID NO: 5)”, the “antibacterial activity … against S. aureus” value in test [1] is “all but BNBD-1 and BNBD-5 were active”.

With “BNBD-7: bovine neutrophil beta-defensin 7, 40 residues (SEQ ID NO: 7)”, in test [1], the “antibacterial activity … against S. aureus” value is “most active beta-defensins”. Moreover, the “antibacterial activity … against E. coli” value in the test on Escherichia coli ML35 is given as “most active beta-defensins”.

With “H-SGISGPLSCGRNGGVCIPIRCPVPMRQIGTCFGRPVKCCRSW (disulfide 9-38, 16-31, 21-39) [BNBD-13]”, the “antibacterial activity … against S. aureus” value in test [1] is “most active beta-defensins; also recorded: approximately equal”. Further, in the test with Escherichia coli ML35, the “antibacterial activity … against E. coli” value is on record as “most active beta-defensins; also recorded: approximately equal”. Moreover, the “fungicidal effectiveness against C. neoformans at highest concentration” value in test [2] was “equally effective”.

“BNBD-11: bovine neutrophil beta-defensin 11, 38 residues (SEQ ID NO: 11) (GPLSCRRNGGVCIPIRCPGPMRQIGTCFGRPVKCCRSW; disulfide 12-27, 17-35, 5-34; ends not checked)”: the “fungicidal potency against C. neoformans” value in test [2] is “substantially less active”. Besides, the “fungicidal activity against C. albicans” value with Candida albicans 16820 is “completely inactive”.

For the compound “BNBD-9: bovine neutrophil beta-defensin 9, 40 residues, N-terminal pyroglutamyl (SEQ ID NO: 9) ([pGlu]GVRNFVTCRINRGFCVPIRCPGHRRQIGTCLGPQIKCCR; also: cyclic, type of ring not given here)”, the “antibacterial activity … against S. aureus” value in test [1] is “most active beta-defensins; also recorded: the greater in vitro activity”. Besides, the “antibacterial activity … against E. coli” value in the test on Escherichia coli ML35 is on record as “most active beta-defensins; also recorded: the greater in vitro activity”.

With “BNBD-2: bovine neutrophil beta-defensin 2, 40 residues; identical to BNBD-3 without the pyroglutamyl-glycine extension (SEQ ID NO: 2) (VRNHVTCRINRGFCVPIRCPGRTRQIGTCFGPRIKCCRSW; disulfide 14-29, 19-37, 7-36)”, in test [1], the “antibacterial activity … against S. aureus” value is “equivalent antibacterial activity”. The “antibacterial activity … against E. coli” value with Escherichia coli ML35 is reported as “equivalent antibacterial activity”.

For “BNBD-12: bovine neutrophil beta-defensin 12, 38 residues; disulfide connectivities determined (SEQ ID NO: 12) (GPLSCGRNGGVCIPIRCPVPMRQIGTCFGRPVKCCRSW; disulfide 12-27, 17-35, 5-34)”, the “antibacterial activity … against S. aureus” value in test [1] was “most active beta-defensins; also recorded: approximately equal”. The “antibacterial activity … against E. coli” value with Escherichia coli ML35 was “most active beta-defensins; also recorded: approximately equal”.
